This is an account of results in publication doi:10.64898/2026.05.07.723658, “Substrate-dependent crosslinking by the cytochrome P450 from aminopyruvatide biosynthesis” (bioRxiv, 2026).

Where a SMILES comes first, the peptide text is derived from it. The star is where a group is joined. For = O=C*

Series [1] addresses T1, angiotensin I-converting enzyme (ACE) (Oryctolagus cuniculus, UniProt P12822).
T1 construct: purchased Sigma A6778
T1 sequence (P12822 34-1310): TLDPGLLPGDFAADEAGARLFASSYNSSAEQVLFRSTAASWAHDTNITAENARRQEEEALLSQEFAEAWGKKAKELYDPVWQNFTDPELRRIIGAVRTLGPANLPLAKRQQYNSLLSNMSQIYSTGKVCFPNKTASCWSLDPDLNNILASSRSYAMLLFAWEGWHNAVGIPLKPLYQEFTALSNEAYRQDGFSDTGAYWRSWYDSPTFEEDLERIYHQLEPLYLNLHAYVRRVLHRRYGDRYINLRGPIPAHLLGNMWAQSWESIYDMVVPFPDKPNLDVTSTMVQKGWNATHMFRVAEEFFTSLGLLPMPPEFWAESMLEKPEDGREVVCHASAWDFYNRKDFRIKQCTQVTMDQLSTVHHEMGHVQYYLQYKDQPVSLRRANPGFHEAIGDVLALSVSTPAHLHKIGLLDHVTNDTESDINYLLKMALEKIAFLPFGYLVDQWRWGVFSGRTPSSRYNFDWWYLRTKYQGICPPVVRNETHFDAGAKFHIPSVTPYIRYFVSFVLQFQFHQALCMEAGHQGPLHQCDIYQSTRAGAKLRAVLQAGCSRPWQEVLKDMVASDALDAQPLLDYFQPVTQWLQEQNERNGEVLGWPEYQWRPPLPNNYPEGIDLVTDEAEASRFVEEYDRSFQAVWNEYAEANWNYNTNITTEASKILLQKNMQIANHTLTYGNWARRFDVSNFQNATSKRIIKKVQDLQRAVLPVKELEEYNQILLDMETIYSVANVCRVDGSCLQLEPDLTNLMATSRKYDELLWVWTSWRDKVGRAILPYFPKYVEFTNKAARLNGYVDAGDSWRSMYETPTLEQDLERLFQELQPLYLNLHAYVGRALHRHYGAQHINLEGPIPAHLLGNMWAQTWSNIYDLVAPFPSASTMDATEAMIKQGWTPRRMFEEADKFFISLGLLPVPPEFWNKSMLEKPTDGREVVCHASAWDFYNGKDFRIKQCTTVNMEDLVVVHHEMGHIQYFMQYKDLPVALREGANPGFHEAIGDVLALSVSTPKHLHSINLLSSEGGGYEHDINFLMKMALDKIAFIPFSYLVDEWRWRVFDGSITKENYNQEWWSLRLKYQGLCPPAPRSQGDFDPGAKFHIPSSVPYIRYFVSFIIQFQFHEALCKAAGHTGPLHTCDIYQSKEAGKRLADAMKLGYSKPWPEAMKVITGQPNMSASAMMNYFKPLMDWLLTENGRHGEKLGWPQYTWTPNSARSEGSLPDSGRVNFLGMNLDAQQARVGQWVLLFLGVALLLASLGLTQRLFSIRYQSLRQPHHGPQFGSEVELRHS
Nature of the series: biochemical. The following applies: 15 min preincubation at room temperature; substrate Abz-FRK(Dnp)-P-OH; 37 °C.

A further series concerns the target T2, chymotrypsin (Bos taurus, UniProt P00766).
T2 construct: purchased Promega V1061
The series is classed as biochemical.

For series [2], the target named is T3, main protease from SARS-CoV-2 virus (Mpro) (Severe acute respiratory syndrome coronavirus 2, UniProt P0DTD1).
T3 construct: Cayman chemical) was used; purchased Cayman chemical 701960
The series is classed as biochemical.

The target in the next series is T4, trypsin (Sus scrofa, UniProt P00761).
T4 construct: purchased Promega V5111
T4 sequence (P00761 9-231): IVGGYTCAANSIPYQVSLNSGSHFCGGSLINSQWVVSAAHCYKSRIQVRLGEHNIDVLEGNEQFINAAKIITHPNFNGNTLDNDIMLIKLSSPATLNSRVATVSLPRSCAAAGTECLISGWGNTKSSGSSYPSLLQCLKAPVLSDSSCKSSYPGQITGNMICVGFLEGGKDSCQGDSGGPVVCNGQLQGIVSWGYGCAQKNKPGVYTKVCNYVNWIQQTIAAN
The series is classed as biochemical.

Take `NCC(=O)N[C@H]1Cc2ccc(O)c(c2)Oc2ccc(cc2)C[C@@H](C(=O)N[C@@H](CC(=O)O)C(=O)O)NC(=O)[C@H](Cc2ccc(O)cc2)NC1=O` (single isomer, unassigned) [L7Y isomer-2]: in series [1], 1100 nM corresponded to half-maximal inhibition (IC50).

For the molecule `CSCC[C@H](NC=O)C(=O)N[C@@H](CCCNC(=N)N)C(=O)N[C@@H](CCSC)C(=O)NCC(=O)N[C@@H](CCC(=O)O)C(=O)NCC(=O)N[C@@H](Cc1ccc(O)cc1)C(=O)N[C@@H](CC(C)C)C(=O)N[C@@H](Cc1ccc(O)cc1)C(=O)N[C@@H](CC(=O)O)C(=O)O` [ApyAct, MRMGEGYLYD] (For-MRMGEGYLYD-OH), in the series with cytochrome P450 ApyO, the “conversion by ApyO” value is on record as “about 70%”.

As to `CSCC[C@H](NC=O)C(=O)N[C@@H](CCCNC(=N)N)C(=O)N[C@@H](CCSC)C(=O)NCC(=O)N[C@@H](CCC(=O)O)C(=O)NCC(=O)N[C@@H](Cc1ccc(O)cc1)C(=O)N[C@@H](Cc1ccccc1)C(=O)N[C@@H](Cc1ccc(O)cc1)C(=O)N[C@@H](CC(=O)O)C(=O)O` [L7F] (For-MRMGEGYFYD-OH), the “conversion by ApyO” value in the series on cytochrome P450 ApyO was ~ 8%.

On to `CSCC[C@H](NC=O)C(=O)N[C@@H](CCCNC(=N)N)C(=O)N[C@@H](CCSC)C(=O)NCC(=O)N[C@@H](CCC(=O)O)C(=O)NCC(=O)N[C@@H](Cc1ccc(O)cc1)C(=O)NCC(=O)N[C@@H](Cc1ccc(O)cc1)C(=O)N[C@@H](CC(=O)O)C(=O)O` [L7G] (For-MRMGEGYGYD-OH), for which, in the series on cytochrome P450 ApyO, the “conversion by ApyO” value is listed as ~ 1%.

Turning to `CC[C@H](C)[C@H](NC(=O)[C@H](Cc1ccc(O)cc1)NC(=O)CNC(=O)[C@H](CCC(=O)O)NC(=O)CNC(=O)[C@H](CCSC)NC(=O)[C@H](CCCNC(=N)N)NC(=O)[C@H](CCSC)NC=O)C(=O)N[C@@H](Cc1ccc(O)cc1)C(=O)N[C@@H](CC(=O)O)C(=O)O` [L7I] (For-MRMGEGYIYD-OH), the “conversion by ApyO” value in the series with cytochrome P450 ApyO is on record as ~ 60%.

Consider `CSCC[C@H](NC=O)C(=O)N[C@@H](CCCNC(=N)N)C(=O)N[C@@H](CCSC)C(=O)NCC(=O)N[C@@H](CCC(=O)O)C(=O)NCC(=O)N[C@@H](Cc1ccc(O)cc1)C(=O)N[C@H](C(=O)N[C@@H](Cc1ccc(O)cc1)C(=O)N[C@@H](CC(=O)O)C(=O)O)[C@@H](C)O` [L7T] (For-MRMGEGYTYD-OH), for which, in the series with cytochrome P450 ApyO, the “conversion by ApyO” value is listed as ~ 3%.

On to `CSCC[C@H](NC=O)C(=O)N[C@@H](CCCNC(=N)N)C(=O)N[C@@H](CCSC)C(=O)NCC(=O)N[C@@H](CCC(=O)O)C(=O)NCC(=O)N[C@@H](Cc1ccc(O)cc1)C(=O)N[C@H](C(=O)N[C@@H](Cc1ccc(O)cc1)C(=O)N[C@@H](CC(=O)O)C(=O)O)C(C)C` [L7V] (For-MRMGEGYVYD-OH), for which the “conversion by ApyO” value in the series with cytochrome P450 ApyO is ~ 57%.

As for `CSCC[C@H](NC=O)C(=O)N[C@@H](CCCNC(=N)N)C(=O)N[C@@H](CCSC)C(=O)NCC(=O)N[C@@H](CCC(=O)O)C(=O)NCC(=O)N[C@@H](Cc1ccc(O)cc1)C(=O)N[C@@H](Cc1c[nH]c2ccccc12)C(=O)N[C@@H](Cc1ccc(O)cc1)C(=O)N[C@@H](CC(=O)O)C(=O)O` [L7W] (For-MRMGEGYWYD-OH), the “conversion by ApyO” value in the series on cytochrome P450 ApyO was ~ 39%.

For `CSCC[C@H](NC=O)C(=O)N[C@@H](CCCNC(=N)N)C(=O)N[C@@H](CCSC)C(=O)NCC(=O)N[C@@H](CCC(=O)O)C(=O)NCC(=O)N[C@@H](Cc1ccc(O)cc1)C(=O)N[C@@H](Cc1ccc(O)cc1)C(=O)N[C@@H](Cc1ccc(O)cc1)C(=O)N[C@@H](CC(=O)O)C(=O)O` [L7Y] (For-MRMGEGYYYD-OH), the “conversion by ApyO” value with cytochrome P450 ApyO is listed as “near quantitative”.

As to `CSCC[C@H](NC=O)C(=O)N[C@@H](CCCCN)C(=O)N[C@@H](CCSC)C(=O)NCC(=O)N[C@@H](CCC(=O)O)C(=O)NCC(=O)N[C@@H](Cc1ccc(O)cc1)C(=O)N[C@@H](CC(C)C)C(=O)N[C@@H](Cc1ccc(O)cc1)C(=O)N[C@@H](CC(=O)O)C(=O)O` [R1K] (For-MKMGEGYLYD-OH), the “conversion by ApyO” value with cytochrome P450 ApyO is reported as ~ 8%.

Consider `CC(C)C[C@@H]1NC(=O)[C@@H](NC(=O)CN)Cc2ccc(O)c(c2)-c2cc(ccc2O)C[C@@H](C(=O)N[C@@H](C)C(=O)C(=O)O)NC1=O` [desmethylaminopyruvatide A], for which the inhibition of chymotrypsin result against chymotrypsin is on record as “No inhibition”. Moreover, in series [2], the “inhibition of Mpro” value is “No inhibition”. Besides, the inhibition of trypsin entry at trypsin is given as “No inhibition”.
